Results published in US20230141403A1 (Hoffmann-La Roche Inc., priority 2020, published 2023).
Structures can show the parent of a compound that is named as a salt.

system: Acinetobacter baumannii ATCC17978; test: Antimicrobial susceptibility testing: 90% growth inhibitory concentration (IC90) determination; type: cell-based; conditions: ATCC17978, 90% growth inhibitory concentration, Iso-Sensitest broth, optical density at 600 nm over 16h, 35±2° C., read-out: AB ATCC 17978 IC90
Description: Antimicrobial Susceptibility Testing:
90% Growth Inhibitory Concentration (IC90) Determination
The in vitro antimicrobial activity of the compounds was determined according to the following procedure:
The assay used a 10-points Iso-Sensitest broth medium to measure quantitatively the in vitro activity of the compounds against Acinetobacter baumannii ATCC17961 or ATCC17978.
Stock compounds in DMSO were serially twofold diluted (e.g. range from 50 to 0.097 μM final concentration) in 384 wells microtiter plates and inoculated with 49 μl the bacterial suspension in Iso-Sensitest medium to have a final cell concentration of ˜5×10^(5) CFU/ml in a final volume/well of 50 ul/well. Microtiter plates were incubated at 35±2° C.
Bacterial cell growth was determined with the measurement of optical density at λ=600 nm each 20 minutes over a time course of 16h. Growth inhibition was calculated during the logarithmic growth of the bacterial cells with determination of the concentration inhibiting 50% (IC50) and 90% (IC90) of the growth.
Table 1 provides the 90% growth inhibitory concentrations (IC90) in micromoles per liter of the compounds of present invention obtained against the strain Acinetobacter baumannii ATCC17978.

SMILES | IC90
O=S1(=O)CCCN1c1ccc(Nc2nccn3c(-c4ccc(OC(F)F)cc4)cnc23)cc1 [Example 1, 3-[4-(difluoromethoxy)phenyl]-N-[4-(1,1-dioxo-1,2-thiazolidin-2-yl)phenyl]imidazo[1,2-a]pyrazin-8-amine] | 0.33 µM
O=C1OCCN1c1ccc(Nc2nccn3c(-c4ccc(OC(F)F)cc4)cnc23)cc1 [Example 2, 3-[4-[[3-[4-(difluoromethoxy)phenyl]imidazo[1,2-a]pyrazin-8-yl]amino]phenyl]oxazolidin-2-one] | 0.25 µM
O=C1COCCN1c1ccc(Nc2nccn3c(-c4ccc(OC(F)F)cc4)cnc23)cc1 [Example 4, 4-[4-[[3-[4-(difluoromethoxy)phenyl]imidazo[1,2-a]pyrazin-8-yl]amino]phenyl]morpholin-3-one] | 0.33 µM
CC(=O)Nc1ccc(Nc2nccn3c(-c4ccc(OC(F)F)cc4)cnc23)cc1 [Example 8, N-[4-[[3-[4-(difluoromethoxy)phenyl]imidazo [1,2-a]pyrazin-8-yl]amino]phenyl] acetamide] | 0.82 µM
COc1ccc(-c2cnc3c(Nc4ccc(N5CCCC5=O)cc4)nccn23)cc1Cl [Example 9, 1-[4-[[3-(3-chloro-4-methoxy-phenyl)imidazo [1,2-a]pyrazin-8-yl]amino]phenyl] pyrrolidin-2-one; 2,2,2-trifluoroacetic acid] | 0.34 µM
COc1ccc(-c2cnc3c(Nc4ccc(NC(=O)CO)cc4)nccn23)cc1Cl [Example 10, N-[4-[[3-(3-chloro-4-methoxy-phenyl)imidazo [1,2-a]pyrazin-8-yl]amino]phenyl]-2-hydroxy-acetamide; 2,2,2-trifluoroacetic acid] | 0.82 µM
COc1ccc(-c2cnc3c(Nc4ccc(NC(C)=O)c(C)c4)nccn23)cc1Cl [Example 11, N-[4-[[3-(3-chloro-4-methoxy-phenyl)imidazo [1,2-a]pyrazin-8-yl]amino]-2-methyl-phenyl]acetamide; 2,2,2-trifluoroacetic acid] | 0.087 µM
COc1ccc(-c2cnc3c(Nc4ccc(NC(=O)CO)cc4)nccn23)cc1F [Example 12, N-[4-[[3-(3-fluoro-4-methoxy-phenyl)imidazo [1,2-a]pyrazin-8-yl]amino]phenyl]-2-hydroxy-acetamide; 2,2,2-trifluoroacetic acid] | 0.89 µM
COc1ccc(-c2cnc3c(Nc4ccc(NC(=O)COCCN)cc4)nccn23)cc1Cl [Example 14, 2-(2-aminoethoxy)-N-[4-[[3-(3-chloro-4-methoxy-phenyl)imidazo [1,2-a]pyrazin-8-yl]amino]phenyl] acetamide; 2,2,2-trifluoroacetic acid] | 0.64 µM
COc1ccc(-c2cnc3c(Nc4ccc(NC(C)=O)cc4)nccn23)cc1F [Example 16, N-(4-((3-(3-fluoro-4-methoxyphenyl)imidazo[1,2-a]pyrazin-8-yl)amino)phenyl)acetamide] | 0.4 µM
COc1ccc(-c2cnc3c(Nc4ccc(NC(C)=O)cc4)nccn23)cc1Cl [Example 17, N-(4-((3-(3-chloro-4-methoxyphenyl)imidazo[1,2-a]pyrazin-8-yl)amino)phenyl)acetamide] | 0.43 µM
COc1ccc(-c2cnc3c(Nc4ccc(N5CCCC5=O)cc4)nccn23)cc1 [Example 18, 1-[4-[[3-(4-methoxyphenyl)imidazo[1,2-a]pyrazin-8-yl]amino]phenyl]pyrrolidin-2-one] | 0.33 µM
COCC(=O)Nc1ccc(Nc2nccn3c(-c4ccc(OC)cc4)cnc23)cc1 [Example 19, 2-Methoxy-N-{4-[3-(4-methoxy-phenyl)-imidazo[1,2-a]pyrazin-8-ylamino]-phenyl}-acetamide] | 0.77 µM
COc1ccc(-c2cnc3c(Nc4ccc(NC(C)=O)c(C)c4)nccn23)cc1 [Example 20, N-{4-[3-(4-Methoxy-phenyl)-imidazo[1,2-a]pyrazin-8-ylamino]-2-methyl-phenyl}-acetamide] | 0.11 µM
COc1ccc(-c2cnc3c(Nc4ccc(NC(C)=O)cc4)nccn23)c(F)c1 [Example 34, N-(4-((3-(2-fluoro-4-methoxyphenyl)imidazo[1,2-a]pyrazin-8-yl)amino)phenyl)acetamide] | 0.55 µM
O=C1CCCN1c1ccc(Nc2nccn3c(-c4ccc(OC(F)F)cc4)cnc23)cc1 [Example 35] | 0.15 µM
COc1ccc(-c2cnc3c(Nc4ccc(NC(=O)CN5CCOCC5)cc4)nccn23)cc1Cl [Example 36, N-(4-((3-(3-chloro-4-methoxyphenyl)imidazo[1,2-a]pyrazin-8-yl)amino)phenyl)-2-morpholinoacetamide] | 0.84 µM
CCc1cc(Nc2nccn3c(-c4ccc(OC)cc4)cnc23)ccc1NC(C)=O [Example 38, N-(2-ethyl-4-((3-(4-methoxyphenyl)imidazo[1,2-a]pyrazin-8-yl)amino)phenyl)acetamide] | 0.2 µM
CC(=O)Nc1ccc(Nc2nccn3c(-c4ccc(OC(F)F)cc4)cnc23)cc1C [Example 40] | 0.13 µM
CC(=O)Nc1ccc(Nc2nccn3c(-c4ccc(OC(F)F)c(Cl)c4)cnc23)cc1 [Example 41, N-(4-((3-(3-chloro-4-(difluoromethoxy)phenyl)imidazo[1,2-a]pyrazin-8-yl)amino)phenyl)acetamide] | 0.52 µM
CC(=O)Nc1ccc(Nc2nccn3c(-c4ccc(Cl)cc4)cnc23)cc1 [Example 42, N-(4-((3-(4-chlorophenyl)imidazo[1,2-a]pyrazin-8-yl)amino)phenyl)acetamide] | 0.83 µM
CC(=O)Nc1ccc(Nc2nccn3c(-c4ccc(Cl)cc4)cnc23)cc1C [Example 43, N-(4-((3-(4-chlorophenyl)imidazo[1,2-a]pyrazin-8-yl)amino)-2-methylphenyl)acetamide] | 0.12 µM
COc1ccc(-c2cnc3c(Nc4ccc(N5CCCCC5=O)cc4)nccn23)cc1Cl [Example 44, 1-(4-((3-(3-Chloro-4-methoxyphenyl)imidazo[1,2-a]pyrazin-8-yl)amino)phenyl)piperidin-2-one] | 0.26 µM
CCc1cc(Nc2nccn3c(-c4ccc(OC)c(Cl)c4)cnc23)ccc1NC(C)=O [Example 45, N-(4-((3-(3-chloro-4-methoxyphenyl)imidazo[1,2-a]pyrazin-8-yl)amino)-2-ethylphenyl)acetamide] | 0.16 µM
COc1ccc(-c2cnc3c(Nc4ccc(NC(C)=O)c(Cl)c4)nccn23)cc1Cl [Example 46, N-(2-chloro-4-((3-(3-chloro-4-methoxyphenyl)imidazo[1,2-a]pyrazin-8-yl)amino)phenyl)acetamide] | 0.89 µM
COc1ccc(-c2cnc3c(Nc4ccc(NC(C)=O)c(C)c4)nccn23)cc1F [Example 47, N-(4-((3-(3-fluoro-4-methoxyphenyl)imidazo[1,2-a]pyrazin-8-yl)amino)-2-methylphenyl)acetamide] | 0.13 µM

same assay, conditions: ATCC17978, 16 h, read-out: AB ATCC 17978 IC90 (uM)

SMILES | IC90
COc1ccc(-c2cnc3c(Nc4ccc5c(c4)CCCC(=O)N5)nccn23)cc1F [Example 5, 7-[[3-(3-fluoro-4-methoxy-phenyl)imidazo[1,2-a]pyrazin-8-yl]amino]-1,3,4,5-tetrahydro-1-benzazepin-2-one hydrochloride] | 0.88 µM
COc1ccc(-c2cnc3c(Nc4ccc(N(C)C(C)=O)cc4)nccn23)cc1Cl [Example 7] | 0.86 µM
COc1ccc(-c2cnc3c(Nc4ccc(NC(=O)COCCOCCN)cc4)nccn23)cc1Cl [Example 13, 2-[2-(2-aminoethoxy)ethoxy]-N-[4-[[3-(3-chloro-4-methoxy-phenyl)imidazo[1,2-a]pyrazin-8-yl]amino]phenyl]acetamide; 2,2,2-trifluoroacetic acid] | 0.81 µM
